Values after ≈ are worked out from the molar mass of the structure shown.
What was measured:
[1] = tested on: Pichia norvegensis; experiment: Antifungal against Candida mycoderma after 24 hrs by two fold serial dilution method; type: functional
[2] = tested on: Escherichia coli; experiment: Antibacterial activity against Escherichia coli JM109 after 24 hrs by micro broth dilution assay; type: functional; details: JM109, 24 h
[3] = tested on: Escherichia coli; experiment: Antibacterial activity against Escherichia coli DH52 after 24 hrs by micro broth dilution assay; type: functional; details: DH52, 24 h
[4] = tested on: Micrococcus luteus; experiment: Antibacterial activity against Micrococcus luteus ATCC4698 after 24 hrs by micro broth dilution assay; type: functional; details: ATCC4698, 24 h
[5] = tested on: Bacillus; experiment: Antibacterial activity against Bacillus proteus ATCC 13315 after 24 hrs by micro broth dilution assay; type: functional; details: ATCC 13315, 24 h
[6] = tested on: Staphylococcus aureus; experiment: Antibacterial activity against Staphylococcus aureus ATCC 25923 after 24 hrs by micro broth dilution assay; type: functional; details: ATCC 25923, 24 h
[7] = tested on: Bacillus subtilis; experiment: Antibacterial activity against Bacillus subtilis after 24 hrs by micro broth dilution assay; type: functional
[8] = tested on: Cyberlindnera jadinii; experiment: Antifungal against Candida utilis after 24 hrs by two fold serial dilution method; type: functional; details: Williopsis jadinii
[9] = tested on: Pseudomonas aeruginosa; experiment: Antibacterial activity against Pseudomonas aeruginosa after 24 hrs by micro broth dilution assay; type: functional
[10] = tested on: Staphylococcus aureus; experiment: Antibacterial activity against methicillin-resistant Staphylococcus aureus N315 after 24 hrs by micro broth dilution assay; type: functional; details: N315, 24 h
[11] = tested on: Aspergillus flavus; experiment: Antifungal against Aspergillus flavus after 24 hrs by two fold serial dilution method; type: functional
[12] = tested on: Saccharomyces cerevisiae; experiment: Antifungal against Saccharomyces cerevisiae after 24 hrs by two fold serial dilution method; type: functional
[13] = tested on: Shigella dysenteriae; experiment: Antibacterial activity against Shigella dysenteriae after 24 hrs by micro broth dilution assay; type: functional
[14] = tested on: Candida albicans; experiment: Antifungal against Candida albicans ATCC 76615 after 24 hrs by two fold serial dilution method; type: functional; details: ATCC 76615, 24 h
[15] = tested on: Salmonella typhi; experiment: Antibacterial activity against Bacillus typhi after 24 hrs by micro broth dilution assay; type: functional, Salmonella enterica subsp. enterica serovar Typhi; details: Salmonella enterica
[16] = tested on: Staphylococcus aureus; experiment: Antibacterial activity against Staphylococcus aureus ATCC 25923 incubated for 24 hrs followed by plating onto tryptic soy agar medium and measured after 24 hrs; type: functional; details: ATCC 25923, 24 h
[17] = tested on: Staphylococcus aureus; experiment: Antibacterial activity against methicillin-resistant Staphylococcus aureus N315 incubated for 24 hrs followed by plating onto tryptic soy agar medium and measured after 24 hrs; type: functional; details: N315, 24 h
[18] = tested on: Staphylococcus aureus; experiment: Ratio of MBC for Staphylococcus aureus ATCC 25923 to MIC for Staphylococcus aureus ATCC 25923; type: functional
[19] = tested on: Pseudomonas aeruginosa; experiment: Antibacterial activity against Pseudomonas aeruginosa incubated for 24 hrs followed by plating onto tryptic soy agar medium and measured after 24 hrs; type: functional
[20] = tested on: Staphylococcus aureus; experiment: Ratio of MBC for methicillin-resistant Staphylococcus aureus N315 to MIC for methicillin-resistant Staphylococcus aureus N315; type: functional
[21] = tested on: Pseudomonas aeruginosa; experiment: Ratio of MBC for Pseudomonas aeruginosa to MIC for Pseudomonas aeruginosa; type: functional

| Structure (SMILES) | MIC [1] | MIC [2] | MIC [3] | MIC [4] | MIC [5] | MIC [6] | MIC [7] | MIC [8] | MIC [9] | MIC [10] | MIC [11] | MIC [12] | MIC [13] | MIC [14] | MIC [15] | further results |
| --- | --- | --- | --- | --- | --- | --- | --- | --- | --- | --- | --- | --- | --- | --- | --- | --- |
| CCCCn1c(C(=O)/C=C/c2ccc(Cl)cc2)nc2ccccc21 | 256 µg/mL (≈ 756 µM) | 256 µg/mL (≈ 756 µM) | 512 µg/mL (≈ 1510 µM) | 512 µg/mL (≈ 1510 µM) | 128 µg/mL (≈ 378 µM) | 64 µg/mL (≈ 189 µM) | 512 µg/mL (≈ 1510 µM) | 512 µg/mL (≈ 1510 µM) | 512 µg/mL (≈ 1510 µM) | 8 µg/mL (≈ 23.6 µM) | 512 µg/mL (≈ 1510 µM) | 16 µg/mL (≈ 47.2 µM) | 32 µg/mL (≈ 94.4 µM) | 256 µg/mL (≈ 756 µM) | 512 µg/mL (≈ 1510 µM) |  |
| Nc1nc(-c2ccc(Cl)cc2)cc(-c2nc3ccccc3[nH]2)n1 | 512 µg/mL (≈ 1590 µM) | 32 µg/mL (≈ 99.4 µM) | 128 µg/mL (≈ 398 µM) | 64 µg/mL (≈ 199 µM) | 8 µg/mL (≈ 24.9 µM) | 64 µg/mL (≈ 199 µM) | 64 µg/mL (≈ 199 µM) | 2 µg/mL (≈ 6.22 µM) | 128 µg/mL (≈ 398 µM) | 128 to 512 µg/mL (≈ 398 to 1590 µM) | 4 µg/mL (≈ 12.4 µM) | 512 µg/mL (≈ 1590 µM) | 32 µg/mL (≈ 99.4 µM) | 1 µg/mL (≈ 3.11 µM) | 512 µg/mL (≈ 1590 µM) | MBC [16]: 256 µg/mL (≈ 796 µM); MBC [17]: 256 µg/mL (≈ 796 µM); Ratio [18]: 4; MBC [19]: 512 µg/mL (≈ 1590 µM); Ratio [20]: 2; Ratio [21]: 4 |
| CCCCCCn1c(-c2cc(-c3ccc(Cl)cc3Cl)nc(N)n2)nc2ccccc21 | 512 µg/mL (≈ 1160 µM) | 512 µg/mL (≈ 1160 µM) | 64 µg/mL (≈ 145 µM) | 512 µg/mL (≈ 1160 µM) | 512 µg/mL (≈ 1160 µM) | 512 µg/mL (≈ 1160 µM) | 512 µg/mL (≈ 1160 µM) | 512 µg/mL (≈ 1160 µM) | 512 µg/mL (≈ 1160 µM) | 512 µg/mL (≈ 1160 µM) | 512 µg/mL (≈ 1160 µM) | 512 µg/mL (≈ 1160 µM) | 512 µg/mL (≈ 1160 µM) | 256 µg/mL (≈ 581 µM) | 512 µg/mL (≈ 1160 µM) |  |
| CCCCn1c(-c2cc(-c3ccc(Cl)cc3Cl)nc(N)n2)nc2ccccc21 | 32 µg/mL (≈ 77.6 µM) | 32 µg/mL (≈ 77.6 µM) | 512 µg/mL (≈ 1240 µM) | 16 µg/mL (≈ 38.8 µM) | 512 µg/mL (≈ 1240 µM) | 512 µg/mL (≈ 1240 µM) | 512 µg/mL (≈ 1240 µM) | 64 µg/mL (≈ 155 µM) | 128 µg/mL (≈ 310 µM) | 512 µg/mL (≈ 1240 µM) | 512 µg/mL (≈ 1240 µM) | 32 µg/mL (≈ 77.6 µM) | 256 µg/mL (≈ 621 µM) | 512 µg/mL (≈ 1240 µM) | 512 µg/mL (≈ 1240 µM) |  |
| Cc1ccc(/C=C/C(=O)c2nc3ccccc3[nH]2)cc1 | 32 µg/mL (≈ 122 µM) | 4 µg/mL (≈ 15.2 µM) | 8 µg/mL (≈ 30.5 µM) | 16 µg/mL (≈ 61 µM) | 4 µg/mL (≈ 15.2 µM) | 8 µg/mL (≈ 30.5 µM) | 16 µg/mL (≈ 61 µM) | 16 µg/mL (≈ 61 µM) | 4 µg/mL (≈ 15.2 µM) | 8 µg/mL (≈ 30.5 µM) | 16 µg/mL (≈ 61 µM) | 8 µg/mL (≈ 30.5 µM) | 16 µg/mL (≈ 61 µM) | 4 µg/mL (≈ 15.2 µM) | 2 µg/mL (≈ 7.62 µM) |  |
| CCCCCCn1c(C(=O)/C=C/c2ccc(Cl)cc2Cl)nc2ccccc21 | 512 µg/mL (≈ 1280 µM) | 512 µg/mL (≈ 1280 µM) | 512 µg/mL (≈ 1280 µM) | 512 µg/mL (≈ 1280 µM) | 512 µg/mL (≈ 1280 µM) | 32 µg/mL (≈ 79.7 µM) | 512 µg/mL (≈ 1280 µM) | 512 µg/mL (≈ 1280 µM) | 512 µg/mL (≈ 1280 µM) | 256 µg/mL (≈ 638 µM) | 512 µg/mL (≈ 1280 µM) | 512 µg/mL (≈ 1280 µM) | 512 µg/mL (≈ 1280 µM) | 512 µg/mL (≈ 1280 µM) | 512 µg/mL (≈ 1280 µM) |  |
| CCCCCCn1c(-c2cc(-c3ccc(F)cc3)nc(N)n2)nc2ccccc21 | 4 µg/mL (≈ 10.3 µM) | 512 µg/mL (≈ 1310 µM) | 512 µg/mL (≈ 1310 µM) | 16 µg/mL (≈ 41.1 µM) | 128 µg/mL (≈ 329 µM) | 512 µg/mL (≈ 1310 µM) | 512 µg/mL (≈ 1310 µM) | 8 µg/mL (≈ 20.5 µM) | 128 µg/mL (≈ 329 µM) | 256 µg/mL (≈ 657 µM) | 512 µg/mL (≈ 1310 µM) | 512 µg/mL (≈ 1310 µM) | 512 µg/mL (≈ 1310 µM) | 256 µg/mL (≈ 657 µM) | 32 µg/mL (≈ 82.2 µM) |  |
| CCCCn1c(C(=O)/C=C/c2ccc(C)cc2)nc2ccccc21 | 128 µg/mL (≈ 402 µM) | 128 µg/mL (≈ 402 µM) | 512 µg/mL (≈ 1610 µM) | 32 µg/mL (≈ 100 µM) | 512 µg/mL (≈ 1610 µM) | 32 µg/mL (≈ 100 µM) | 128 µg/mL (≈ 402 µM) | 512 µg/mL (≈ 1610 µM) | 16 µg/mL (≈ 50.2 µM) | 64 µg/mL (≈ 201 µM) | 4 µg/mL (≈ 12.6 µM) | 4 µg/mL (≈ 12.6 µM) | 128 µg/mL (≈ 402 µM) | 16 µg/mL (≈ 50.2 µM) | 128 µg/mL (≈ 402 µM) |  |
| CCCCCCCn1c(-c2cc(-c3ccc(F)cc3)nc(N)n2)nc2ccccc21 | 512 µg/mL (≈ 1270 µM) | 256 µg/mL (≈ 634 µM) | 16 µg/mL (≈ 39.7 µM) | 16 µg/mL (≈ 39.7 µM) | 128 µg/mL (≈ 317 µM) | 512 µg/mL (≈ 1270 µM) | 2 µg/mL (≈ 4.96 µM) | 8 µg/mL (≈ 19.8 µM) | 512 µg/mL (≈ 1270 µM) | 256 µg/mL (≈ 634 µM) | 16 µg/mL (≈ 39.7 µM) | 16 µg/mL (≈ 39.7 µM) | 512 µg/mL (≈ 1270 µM) | 16 µg/mL (≈ 39.7 µM) | 16 µg/mL (≈ 39.7 µM) |  |
